Test results published in ChEMBL document CHEMBL1201862, “PubChem BioAssay data set” (2004).
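Exposure lasted 48 hours, with cells grown in 96-well plates and compounds tested at five concentrations. Here, GI50 denotes the concentration required for 50% inhibition of growth.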 The source made the active and inactive calls. Rule as the data show it: active = GI50 up to about 1.1 µM and inactive = higher.

Tests used:
Experiment in all cases: NCI anticancer screen, dose series, 48 h
SF-268 = system: SF-268
HT-29 = system: HT-29
SK-MEL-2 = system: SK-MEL-2
UACC-62 = system: UACC-62
SK-OV-3 = system: SK-OV-3
HOP-62 = system: HOP-62
NCI-H23 = system: NCI-H23
NCI-H460 = system: NCI-H460
786-0 = system: 786-0
BT-549 = system: BT-549
MCF7 = system: MCF7
HCT-15 = system: HCT-15
SK-MEL-28 = system: SK-MEL-28
CCRF-CEM = system: CCRF-CEM
TK-10 = system: TK-10
K562 = system: K562
Hs-578T = system: Hs-578T
COLO 205 = system: COLO 205
UO-31 = system: UO-31
RXF 393 = system: RXF 393
OVCAR-3 = system: OVCAR-3
NCI-H522 = system: NCI-H522
T47D = system: T47D
OVCAR-4 = system: OVCAR-4
HCT-116 = system: HCT-116
PC-3 = system: PC-3
U-251 = system: U-251
RPMI-8226 = system: RPMI-8226
M14 = system: M14
NCI-H226 = system: NCI-H226
SW-620 = system: SW-620
UACC-257 = system: UACC-257
IGROV-1 = system: IGROV-1
SN12C = system: SN12C
Malme-3M = system: Malme-3M
DU-145 = system: DU-145
EKVX = system: EKVX
A549 = system: A549
MDA-MB-231 = system: MDA-MB-231
OVCAR-8 = system: OVCAR-8
ACHN = system: ACHN
HCC 2998 = system: HCC 2998
SF-295 = system: SF-295
SNB-75 = system: SNB-75
NCI/ADR-RES = system: NCI/ADR-RES
SNB-19 = system: SNB-19
OVCAR-5 = system: OVCAR-5
SK-MEL-5 = system: SK-MEL-5
KM12 = system: KM12
MDA-N = system: MDA-N
MDA-MB-435 = system: MDA-MB-435
HL-60 = system: HL-60
MOLT-4 = system: MOLT-4
SF-539 = system: SF-539
CAKI-1 = system: CAKI-1
LOX IMVI = system: LOX IMVI
SR = system: SR

For `N#C/C(=N/Nc1[nH]cnc1C(N)=O)C(=O)Nc1ccccc1`, the GI50 (SF-268) was 8.17 µM (inactive), the GI50 (HT-29) was 48.6 µM (inactive) and the GI50 (SK-MEL-2) was 5.27 µM (inactive). For the same compound, the GI50 (UACC-62) was 9.18 µM (inactive), the GI50 (SK-OV-3) was 4.66 µM (inactive) and the GI50 (HOP-62) was 6.18 µM (inactive). For the same compound, the GI50 (NCI-H23) was 56.8 µM (inactive), the GI50 (NCI-H460) was 37.6 µM (inactive) and the GI50 (786-0) was 22.8 µM (inactive). The GI50 (BT-549) was > 100 µM (inactive), the GI50 (MCF7) was 54 µM (inactive) and the GI50 (HCT-15) was 35.5 µM. For the same compound, the GI50 (SK-MEL-28) was 88.5 µM (inactive), the GI50 (CCRF-CEM) was 3.23 µM (inactive) and the GI50 (TK-10) was 18.5 µM (inactive). The GI50 (K562) was 1.52 µM (inactive), the GI50 (Hs-578T) was 67.8 µM (inactive) and the GI50 (COLO 205) was 16.5 µM (inactive). For the same compound, the GI50 (UO-31) was 3.43 µM (inactive), the GI50 (RXF 393) was 59.4 µM (inactive) and the GI50 (OVCAR-3) was 5.41 µM (inactive). For the same compound, the GI50 (NCI-H522) was 7.71 µM (inactive), the GI50 (T47D) was 56.6 µM (inactive) and the GI50 (OVCAR-4) was 14.6 µM (inactive). The GI50 (HCT-116) was 14.3 µM (inactive), the GI50 (PC-3) was 7.89 µM (inactive) and the GI50 (U-251) was > 100 µM (inactive). For the same compound, the GI50 (RPMI-8226) was 2.16 µM (inactive), the GI50 (M14) was 4.99 µM (inactive) and the GI50 (NCI-H226) was 27 µM (inactive). The GI50 (SW-620) was 12.5 µM (inactive), the GI50 (UACC-257) was 76.2 µM (inactive) and the GI50 (IGROV-1) was 4.55 µM (inactive). The GI50 (SN12C) was 4.71 µM (inactive), the GI50 (Malme-3M) was 5.48 µM (inactive) and the GI50 (DU-145) was 6.3 µM (inactive). For the same compound, the GI50 (EKVX) was 65.5 µM (inactive), the GI50 (A549) was > 100 µM (inactive) and the GI50 (MDA-MB-231) was 32.3 µM (inactive). The GI50 (OVCAR-8) was 3.23 µM (inactive), the GI50 (ACHN) was 15.2 µM (inactive) and the GI50 (HCC 2998) was 9.89 µM (inactive). The GI50 (SF-295) was 17.5 µM (inactive), the GI50 (SNB-75) was 24.5 µM (inactive) and the GI50 (NCI/ADR-RES) was 3.45 µM (inactive). The GI50 (SNB-19) was > 100 µM (inactive), the GI50 (OVCAR-5) was 34.6 µM (inactive) and the GI50 (SK-MEL-5) was 58.5 µM (inactive). The GI50 (KM12) was 13.9 µM (inactive), the GI50 (MDA-N) was 12.9 µM (inactive) and the GI50 (MDA-MB-435) was 22.1 µM (inactive). The GI50 (HL-60) was 28.9 µM (inactive) and the GI50 (MOLT-4) was 4.88 µM (inactive).
With `Cc1c(NC(=O)CSC(=S)N(C)C)c(=O)n(-c2ccccc2)n1C` the GI50 (SF-268) was > 100 µM (inactive), the GI50 (HT-29) was > 100 µM (inactive) and the GI50 (SK-MEL-2) was > 100 µM (inactive). For the same compound, the GI50 (SK-OV-3) was > 100 µM (inactive), the GI50 (HOP-62) was > 100 µM (inactive) and the GI50 (NCI-H23) was > 100 µM (inactive). The GI50 (NCI-H460) was > 100 µM (inactive), the GI50 (786-0) was > 100 µM (inactive) and the GI50 (BT-549) was > 100 µM (inactive). The GI50 (MCF7) was > 100 µM (inactive), the GI50 (HCT-15) was over 100 µM and the GI50 (SK-MEL-28) was > 100 µM (inactive). For the same compound, the GI50 (CCRF-CEM) was > 100 µM (inactive), the GI50 (TK-10) was > 100 µM (inactive) and the GI50 (K562) was > 100 µM (inactive). For the same compound, the GI50 (Hs-578T) was > 100 µM (inactive), the GI50 (COLO 205) was > 100 µM (inactive) and the GI50 (UO-31) was > 100 µM (inactive). The GI50 (RXF 393) was > 100 µM (inactive), the GI50 (OVCAR-3) was > 100 µM (inactive) and the GI50 (SF-539) was > 100 µM (inactive). For the same compound, the GI50 (NCI-H522) was > 100 µM (inactive), the GI50 (T47D) was > 100 µM (inactive) and the GI50 (OVCAR-4) was > 100 µM (inactive). For the same compound, the GI50 (HCT-116) was > 100 µM (inactive), the GI50 (PC-3) was > 100 µM (inactive) and the GI50 (U-251) was > 100 µM (inactive). For the same compound, the GI50 (RPMI-8226) was > 100 µM (inactive), the GI50 (M14) was > 100 µM (inactive) and the GI50 (NCI-H226) was > 100 µM (inactive). The GI50 (SW-620) was > 100 µM (inactive), the GI50 (UACC-257) was > 100 µM (inactive) and the GI50 (IGROV-1) was > 100 µM (inactive). For the same compound, the GI50 (SN12C) was > 100 µM (inactive), the GI50 (Malme-3M) was > 100 µM (inactive) and the GI50 (DU-145) was > 100 µM (inactive). The GI50 (EKVX) was > 100 µM (inactive), the GI50 (A549) was > 100 µM (inactive) and the GI50 (MDA-MB-231) was > 100 µM (inactive). The GI50 (OVCAR-8) was > 100 µM (inactive), the GI50 (ACHN) was > 100 µM (inactive) and the GI50 (HCC 2998) was > 100 µM (inactive). The GI50 (CAKI-1) was > 100 µM (inactive), the GI50 (SF-295) was > 100 µM (inactive) and the GI50 (SNB-75) was > 100 µM (inactive). For the same compound, the GI50 (LOX IMVI) was > 100 µM (inactive), the GI50 (NCI/ADR-RES) was > 100 µM (inactive) and the GI50 (SNB-19) was > 100 µM (inactive). The GI50 (OVCAR-5) was > 100 µM (inactive), the GI50 (SK-MEL-5) was > 100 µM (inactive) and the GI50 (KM12) was > 100 µM (inactive). The GI50 (MDA-N) was > 100 µM (inactive), the GI50 (MDA-MB-435) was > 100 µM (inactive) and the GI50 (MOLT-4) was > 100 µM (inactive). The GI50 (SR) was > 100 µM (inactive).
